Experimental data as given in patent US20220280526A1, “AGENT FOR THE TREATMENT OF PSORIASIS” (EBERHARD KARLS UNIVERSITAET TUEBINGEN MEDIZINISCHE FAKULTAET, priority 2019, published 2022).

Key:
[1] = system: NFKBIZ (IκBζ) promoter; assay: Luciferase assay of NFKBIZ promoter activity in HaCaT cells; assay type: cell-based; conditions: IL-36α-stimulated HaCaT cells, 24 h
Description: Luciferase constructs were generated as described; Muller et al. (2018; loc. Cit.). 1*10^4 HEK293T cells were transfected for 24 h using HBS buffer and CaCl2 and a mixture of 400 ng luciferase vector and 100 ng TK-Renilla vector. For expression of other factors, the following concentrations were used: 70 ng p65, 200 ng cJUN, STAT3 or EZH2 constructs and 500 ng CDK4, CDK6 or cyclin D expression constructs (not shown). For transfection of HaCaT cells, 3*10^5 cells were transfected for 4 h using Lipofectamine 3000 and a mixture of 800 ng luciferase vector, 200 ng TK-Renilla vector and 4 μg expression or control plasmids according to the manufacturer's instructions (Thermo Fisher). 36 h after transfection, luciferase activity was measured with the Dual Luciferase Reporter Assay Kit (Promega). Expression of the reporter constructs was calculated as the fold induction over unstimulated transfected cells from data of three independent experiments.

[2] = system: STAT3 lysine methylation; assay: Detection of methylated STAT3 by immunoprecipitation in HEK293T cells; assay type: cell-based; conditions: STAT3- and EZH2-overexpressing HEK293T cells, 1 h treatment
Description: HEK293T cells were transfected using HBS buffer and CaCl2. HaCaT cells were transfected with Lipofectamine 3000, according to the manufacturer's instructions (Thermo Fisher). 5 μg expression constructs were incubated with 3*10^5 cells for 4 h. 36-48 h post transfection, cells were harvested and analysed.
Western blot analysis was performed as described before. The following antibodies were used and purchased from Cell Signaling: anti-IκBζ (9244), anti-phospho-STAT3 at Tyr705 (9145), anti-phospho-STAT3 at Ser727 (9134), anti-STAT3 (12640), anti-p65 (8242), anti-EZH2 (5246), anti-pRB (phospho-RB at Ser807/811; 8516), anti-FoxM1 (5436), anti-H3 (4499), anti-CDK4 (12790), anti-CDK6 (13331), anti-CDK9 (2316), anti-cyclin D1 (2978), anti-cyclin D2 (3741), anti-cyclin D3 (2936), anti-cJUN (9165), anti-H3K27me3 (9733), anti-GAPDH (2118), anti-H3 (9715) and anti-β-actin (3700). Anti-β-Gal (sc377257) and anti-GFP (sc9996) were obtained from Santa Cruz Biotechnology. Anti-pEZH2 at T345 (61242) anti-pEZH2 at T487 (12820) were purchased from Active Motif and anti-pan-methyl-lysine antibody was purchased from Enzo (ADI-KAP-TF121-E). For detection of mouse IκBζ, a self-made antibody raised against peptides […] (SEQ ID NO:3) and […] (SEQ ID NO:4) was applied. […]

[3] = system: IMQ-induced psoriasis-like skin inflammation; assay: Imiquimod (IMQ)-mediated psoriasis mouse model, topical treatment of ears; assay type: in vivo, C57BL/6 mice
Description: Experiments were conducted in accordance with the German law guidelines of animal care. […] At day 7, mice were sacrificed and analysed. For IL-36α-mediated psoriasis induction, ears of male C57BL/6 mice (8-12 weeks old) were treated by intradermal injections using 1 μg murine IL-36α (aa 8-160, R&D) or PBS control for 5 consecutive days. […] Inhibitors were topically applicated 6 h before intradermal injections of IL-36α or PBS were applied. Mice were sacrificed and analysed at day 6.
Sample preparation was performed as described. The following anti-mouse antibodies from BioLegend were used: anti-CD45 FITC (103107), anti-CD11 b PacificBlue (101223), anti-Ly6G PE (127607), anti-F4/80 APC (123115), anti-CD11c Pacific Blue (117322), anti-MHC-II APC (107613), anti-CD172α PE (144011) and anti-Silec-H PE (129605). Anti-PDCA-1 APC (17-2092-80) and anti-αβTCR PE (HM3628) were purchased from Invitrogen, and anti-γδ-TCR APC (17-5711-82) from Sigma. Data was acquired on a LSRII flow cytometer (Becton Dickson).
Ear sections from mice were fixed in 10% formalin (Carl Roth) and subsequently embedded in paraffin. 5-μm sections were prepared and incubated with the following antibodies from Cell Signaling: pSTAT3 (9145), pRB (8516) and H3K27me3 (9733). For staining of human skin samples, EZH2 antibody (Cell Signaling, 5246) was used. Antigen retrieval was performed in 1 mM EDTA pH 8.0 for pSTAT3, and 10 mM citrate buffer pH 6.0+0.5% Triton X-100 for EZH2, H3K27me3 and pRB. After incubation with peroxidase-coupled secondary antibodies, sections were stained with DAB substrate.

[4] = flow cytometry of ears at day 7

With Abemaciclib mesylate the “expression of luciferase construct harboring the NFKBIZ (IκBζ) promoter” value [1] was “abrogated”, the “lysine methylation of STAT3” value [2] was “abrogated” and the “pRB expression in the epidermis (CDK4/6 inhibition)” value ([3]; ear skin sections of treated mice) was “loss of pRB”. The “immune cell infiltration (neutrophils, macrophages, T cells)” value [3, 4] was “significantly suppressed”, the “number of infiltrating plasmacytoid (pDC) and myeloid dendritic cells (mDC)” value [3, 4] was “significantly suppressed” and the “IκBζ expression, phosphorylation of EZH2 at T345 and of STAT3 at Y705 in the skin” value ([3]; immunoblot of skin tissue at day 7) was “completely abrogated”. For the same substance, the “expression of IκBζ target genes (Cxcl2, Cxcl5) and cytokines (Il17a, Il23a) in skin” value ([3]; qPCR of skin samples at day 7) was “significantly downregulated”, the “psoriasis-like skin inflammation (ear thickening, keratinocyte hyperproliferation, immune cell infiltration)” value ([3]; topical daily for 6 days with IMQ, abemaciclib 0.02 mg, CPI-169 0.05 mg per ear/day, analysed day 7) was “completely suppressed” and the “skin penetration of topically applied inhibitor” value ([3]; topical on mouse ear skin) was “effectively penetrated”.
